Laboratory results as given in PubChem BioAssay AID2060894 (Molecular Pharmacology Branch, DTP, NCI, 2025).

Test system: K12877-001-R-J1-PDC complex spheroid viability
Test: Anticancer human tumor K12877-001-R-J1-PDC patient-derived lung adenocarcinoma cell line growth inhibition [RAS]
Conditions: for IC50: curve of first compound; for viability, T/C: stronger effect = lower value
Summary of the method: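 Multi-cell-type spheroids: tumor cells plus HUVEC endothelial cells and mesenchymal stem cells. RAS-pathway inhibitors were combined with targeted agents, each dosed in half-log steps down from clinical Cmax, or from 10 microM when Cmax was unknown.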

[1] = second compound 0.000949 µM, first compound 0.0316 µM
[2] = second compound 0.000949 µM, first compound 0.1 µM
[3] = second compound 0.000949 µM, first compound 0.316 µM
[4] = second compound 0.000949 µM, first compound 1 µM
[5] = second compound 0.003 µM, first compound 0.0316 µM
[6] = second compound 0.003 µM, first compound 0.1 µM
[7] = second compound 0.003 µM, first compound 0.316 µM
[8] = second compound 0.003 µM, first compound 1 µM
[9] = second compound 0.00949 µM, first compound 0.0316 µM
[10] = second compound 0.00949 µM, first compound 0.1 µM
[11] = second compound 0.00949 µM, first compound 0.316 µM
[12] = second compound 0.00949 µM, first compound 1 µM
[13] = second compound 0.03 µM, first compound 0.0316 µM
[14] = second compound 0.03 µM, first compound 0.1 µM
[15] = second compound 0.03 µM, first compound 0.316 µM
[16] = second compound 0.03 µM, first compound 1 µM
[17] = second compound 0.0949 µM, first compound 0.0316 µM
[18] = second compound 0.0949 µM, first compound 0.1 µM
[19] = second compound 0.0949 µM, first compound 0.316 µM
[20] = second compound 0.0949 µM, first compound 1 µM
[21] = second compound 0.3 µM, first compound 0.0316 µM
[22] = second compound 0.3 µM, first compound 0.1 µM
[23] = second compound 0.3 µM, first compound 0.316 µM
[24] = second compound 0.3 µM, first compound 1 µM
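Further: spheroids exposed to agents for one week before readout.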
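Wherever viability, T/C is given: tumour cells co-cultured with HUVEC and mesenchymal stem cells in spheroids.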

NC1c2ccccc2OC12CCN(c1cnc3c(N4CCCc5ncccc54)n[nH]c3n1)CC2 (centres undefined) + CCn1c(-c2cccnc2C(C)OC)c2c3cc(ccc31)N1CCOC(CC(NC(=O)C(C(C)C)N(C)C(=O)C3(F)CCN(C(=O)C#CC(C)(C)N(C)C)CC3)C(=O)N3CCCC(N3)C(=O)OCC(C)(C)C2)C1
IC50 (second compound 0.000949 µM): 580 nM | IC50 (second compound 0.003 µM): 509 nM | IC50 (second compound 0.00949 µM): 225 nM | IC50 (second compound 0.03 µM): 145 nM | IC50 (second compound 0.0949 µM): 136 nM | IC50 (second compound 0.3 µM): 67.7 nM | viability, T/C [1]: 69% | viability, T/C [2]: 67.8% | viability, T/C [3]: 56% | viability, T/C [4]: 43.8% | viability, T/C (second compound 0.000949 µM, first compound 3.16 µM): 38.5% | viability, T/C (second compound 0.000949 µM, first compound 10 µM): 34% | viability, T/C [5]: 65.8% | viability, T/C [6]: 62.2% | viability, T/C [7]: 52.5% | viability, T/C [8]: 45.4% | viability, T/C (second compound 0.003 µM, first compound 3.16 µM): 37% | viability, T/C (second compound 0.003 µM, first compound 10 µM): 30% | viability, T/C [9]: 76.9% | viability, T/C [10]: 54.1% | viability, T/C [11]: 49.5% | viability, T/C [12]: 38.5% | viability, T/C (second compound 0.00949 µM, first compound 3.16 µM): 37.6% | viability, T/C (second compound 0.00949 µM, first compound 10 µM): 28.9% | viability, T/C [13]: 65.9% | viability, T/C [14]: 50.9% | viability, T/C [15]: 44.9% | viability, T/C [16]: 39.3% | viability, T/C (second compound 0.03 µM, first compound 3.16 µM): 34.5% | viability, T/C (second compound 0.03 µM, first compound 10 µM): 30.8% | viability, T/C [17]: 62.4% | viability, T/C [18]: 52.1% | viability, T/C [19]: 41.8% | viability, T/C [20]: 38.3% | viability, T/C (second compound 0.0949 µM, first compound 3.16 µM): 39.1% | viability, T/C (second compound 0.0949 µM, first compound 10 µM): 27.4% | viability, T/C [21]: 58.3% | viability, T/C [22]: 46.9% | viability, T/C [23]: 35% | viability, T/C [24]: 29.1% | viability, T/C (second compound 0.3 µM, first compound 3.16 µM): 29.8% | viability, T/C (second compound 0.3 µM, first compound 10 µM): 22.8%

Nc1ccn(C2OC(CO)C(O)C2(F)F)c(=O)n1 (centres undefined) + CCn1c(-c2cccnc2C(C)OC)c2c3cc(ccc31)N1CCOC(CC(NC(=O)C(C(C)C)N(C)C(=O)C3(F)CCN(C(=O)C#CC(C)(C)N(C)C)CC3)C(=O)N3CCCC(N3)C(=O)OCC(C)(C)C2)C1
IC50 (second compound 0.000949 µM): 14.5 nM | IC50 (second compound 0.003 µM): 13.2 nM | IC50 (second compound 0.00949 µM): 12.7 nM | IC50 (second compound 0.03 µM): 12.4 nM | IC50 (second compound 0.0949 µM): 10.5 nM | IC50 (second compound 0.3 µM): 5.89 nM | viability, T/C (second compound 0.000949 µM, first compound 0.00316 µM): 83.5% | viability, T/C (second compound 0.000949 µM, first compound 0.01 µM): 71.9% | viability, T/C [1]: 4.44% | viability, T/C [2]: 3.87% | viability, T/C [3]: 3.37% | viability, T/C [4]: 4.46% | viability, T/C (second compound 0.003 µM, first compound 0.00316 µM): 82.3% | viability, T/C (second compound 0.003 µM, first compound 0.01 µM): 64.6% | viability, T/C [5]: 4.22% | viability, T/C [6]: 3.94% | viability, T/C [7]: 5.22% | viability, T/C [8]: 3.83% | viability, T/C (second compound 0.00949 µM, first compound 0.00316 µM): 79.7% | viability, T/C (second compound 0.00949 µM, first compound 0.01 µM): 61.6% | viability, T/C [9]: 5.4% | viability, T/C [10]: 4.58% | viability, T/C [11]: 3.59% | viability, T/C [12]: 3.51% | viability, T/C (second compound 0.03 µM, first compound 0.00316 µM): 82.2% | viability, T/C (second compound 0.03 µM, first compound 0.01 µM): 60.4% | viability, T/C [13]: 3.17% | viability, T/C [14]: 4.94% | viability, T/C [15]: 4.16% | viability, T/C [16]: 3.02% | viability, T/C (second compound 0.0949 µM, first compound 0.00316 µM): 77.2% | viability, T/C (second compound 0.0949 µM, first compound 0.01 µM): 52% | viability, T/C [17]: 5.2% | viability, T/C [18]: 3.34% | viability, T/C [19]: 2.8% | viability, T/C [20]: 3.38% | viability, T/C (second compound 0.3 µM, first compound 0.00316 µM): 71.6% | viability, T/C (second compound 0.3 µM, first compound 0.01 µM): 31.5% | viability, T/C [21]: 3.46% | viability, T/C [22]: 2.66% | viability, T/C [23]: 3.3% | viability, T/C [24]: 3.43%
